Consider 47 compounds from PMC12280126, “Potent β-lactam-based tyrosyl-DNA phosphodiesterase 1 inhibitors identified by a virtual screen” (Scientific Reports, 2025).

Several values for one entry are separate records, joined by “and”; a condition that tells them apart may be missing. Equal values may be shown once. Where a name gives a salt, the structure may show the parent alone. Read-outs that look alike come from different tables or passages of the source.

In the experiment the target is T1, recombinant TDP1 (Homo sapiens, UniProt Q9NUW8).
T1 construct: incubated with 40 pM full-length recombinant TDP1 or TDP1 (148–608)
Put plainly: in vitro gel-based fluorescence TDP1 catalytic assay. Format: biochemical. How it is done: We subjected select virtual screen hits to evaluation of TDP1 inhibitory potencies using in vitro gel-based fluorescence TDP1 catalytic assays (Fig. 2). […] To further explore this class of compounds, we purchased from TargetMol a library of approximately 90 β-lactams as 10 mM solutions in DMSO. […] We examined TDP1 inhibitory potencies of the compounds using the in vitro gel-based fluorescence assays as previously described[21]–[24]. Briefly, a 5’-Cy5-labeled DNA substrate (N14Y, 5’-Cy5-[…]-pY-3’, 1 nM) was incubated in TDP1 reaction buffer with recombinant TDP1 or truncated TDP1(148–608) (40 pM) in the absence or presence of inhibitors for 15 min at room temperature. […] The TDP1 inhibition IC50 values were calculated based on gel images of the cleavage product (N14P, 5’-Cy5-[…]-p-3’) (Fig. 3A and Table S2).
The inhibition of TDP1 and TDP2 were conducted according to gel-based methods as previously described[21]–[24],[45]. Briefly, 1 nM of the DNA substrate (N14Y, 5´Cy5-[…]-pY-3´) was incubated with 40 pM full-length recombinant TDP1 or TDP1 (148–608) in the absence or presence of inhibitors for 15 min at room temperature in TDP1 reaction buffer (50 mM Tris-HCl, pH 7.5, 80 mM KCl, 2 mM EDTA, 1 mM DTT, 40 µg/mL BSA and 0.01% Tween 20). The inhibition of TDP2 was also conducted by using similar conditions. […] The reactions of both TDP1 and TDP2 were stopped by adding an equal volume of gel loading buffer (99.5% (v/v) formamide, 5 mM EDTA). The samples were then subjected to a 20% denaturing PAGE gel followed by gel scanning using a Typhoon FLA 9500 scanner (GE Healthcare). The IC50 values of the TDP1 inhibitors were calculated by comparing the percentage of the cleavage product (N14P, 5´Cy5-[…]-p-3´) produced to that in the DMSO control. The IC50 values of the TDP2 inhibitors were calculated by comparing the percentage of the cleavage product (PN18, 5’-p-[…]-Cy5-3’) produced to that in the DMSO control.

Setting [1] is: 40 pM recombinant TDP1, 1 nM N14Y DNA substrate, 15 min, room temperature, read-out: TDP1 IC50.

T1 sequence (Q9NUW8 whole entry): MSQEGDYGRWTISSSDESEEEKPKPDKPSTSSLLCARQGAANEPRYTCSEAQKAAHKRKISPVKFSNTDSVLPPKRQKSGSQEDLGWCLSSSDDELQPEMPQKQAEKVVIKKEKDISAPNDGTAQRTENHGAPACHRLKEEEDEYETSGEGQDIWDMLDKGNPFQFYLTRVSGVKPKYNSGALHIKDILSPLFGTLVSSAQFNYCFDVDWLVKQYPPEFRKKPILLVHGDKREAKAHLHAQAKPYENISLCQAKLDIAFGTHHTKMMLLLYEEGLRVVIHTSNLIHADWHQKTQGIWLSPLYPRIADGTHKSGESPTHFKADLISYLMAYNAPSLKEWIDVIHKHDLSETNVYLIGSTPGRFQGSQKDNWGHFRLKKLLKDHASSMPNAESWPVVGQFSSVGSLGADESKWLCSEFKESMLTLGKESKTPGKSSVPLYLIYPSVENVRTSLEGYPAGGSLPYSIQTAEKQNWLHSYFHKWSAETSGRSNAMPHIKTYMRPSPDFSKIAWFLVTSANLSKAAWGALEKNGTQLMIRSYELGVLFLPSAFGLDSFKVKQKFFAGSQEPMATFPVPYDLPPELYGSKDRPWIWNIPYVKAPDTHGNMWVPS

On to `CC1(C)S[C@@H]2[C@H](NC(=O)[C@H](N)c3ccccc3)C(=O)N2[C@H]1C(=O)OCOC(=O)[C@@H]1N2C(=O)C[C@H]2S(=O)(=O)C1(C)C` [LE4, Sultamicillin Tosylate], for which the IC50 under setting [1] was above 1000 µM.

Regarding `C[C@@H](O)[C@H]1C(=O)N2C(C(=O)O)=C([C@H]3CCCO3)S[C@H]12` [LC7, Faropenem sodium], under setting [1], the IC50 is above 1000 µM.

Turning to `C[C@@H](O)[C@H]1C(=O)N2C(C(=O)O)=C(S[C@@H]3CN[C@H](C(=O)N(C)C)C3)[C@H](C)[C@H]12` [LF1, Meropenem], the IC50 under setting [1] is above 1000 µM.

As to `C[C@@H](O)[C@H]1C(=O)N2C(C(=O)O)=C(S[C@@H]3CN[C@H](CNS(N)(=O)=O)C3)[C@H](C)[C@H]12` [LE5, Doripenem], under setting [1], the IC50 turned out to be 148 µM.

Turning to `CO/N=C(\C(=O)N[C@@H]1C(=O)N2C(C(=O)O)=C(CSc3nc(=O)c(=O)[nH]n3C)CS[C@H]12)c1csc(N)n1` [LG2, Ceftriaxone sodium], the IC50 under setting [1] was above 1000 µM.

For `CC1(C)S[C@@H]2[C@H](/N=C/N3CCCCCC3)C(=O)N2[C@H]1C(=O)O` [LE6, Mecillinam], the IC50 under setting [1] was above 1000 µM.

With `COCC1=C(C(=O)OC(C)OC(=O)OC(C)C)N2C(=O)[C@@H](NC(=O)/C(=N\OC)c3csc(N)n3)[C@H]2SC1` (some centres unmarked) [LD2, Cefpodoxime proxetil], the IC50 under setting [1] is above 1000 µM.

For `CO/N=C(\C(=O)N[C@@H]1C(=O)N2C(C(=O)[O-])=C(C[n+]3cccc4c3CCC4)CS[C@H]12)c1csc(N)n1` [LD3, Cefpirome sulfate], the IC50 under setting [1] was above 1000 µM.

For the compound `CC(=O)OCC1=C(C(=O)O)N2C(=O)[C@@H](NC(=O)CSc3ccncc3)[C@H]2SC1` [LC8, Cephapirin Sodium], the IC50 under setting [1] was 496 µM.

For `CO/N=C(\C(=O)N[C@@H]1C(=O)N2C(C(=O)O)=C(CSC(=O)c3ccco3)CS[C@H]12)c1csc(N)n1` [LG1, Sodium ceftiofur], under setting [1], the IC50 was above 1000 µM.

With `CC(=O)OCC1=C(C(=O)O)N2C(=O)[C@@H](NC(=O)CSc3ccncc3)[C@H]2SC1` [LA7, Cephapirin Benzathine], the IC50 (read-out: TDP1 IC50) is above 1000 µM.

As for `CCOc1ccc2ccccc2c1C(=O)N[C@@H]1C(=O)N2[C@@H]1SC(C)(C)[C@@H]2C(=O)O` [LF5, nafcillin sodium], under setting [1], the IC50 is above 1000 µM.

`CCN1CCN(C(=O)N[C@@H](C(=O)N[C@@H]2C(=O)N3[C@@H]2SC(C)(C)[C@@H]3C(=O)O)c2ccccc2)C(=O)C1=O` [LG3, Piperacillin sodium salt]: the IC50 under setting [1] was above 1000 µM.

As for `CCO/N=C(\C(=O)N[C@@H]1C(=O)N2C(C(=O)[O-])=C(Sc3nc(-c4cc[n+](C)cc4)cs3)CS[C@H]12)c1nsc(NP(=O)(O)O)n1` [LA11, Ceftaroline fosamil], under setting [1], the IC50 is above 1000 µM.

Consider `CON=C(C(=O)NC1C(=O)N2C(C(=O)OCOC(=O)C(C)(C)C)=C(C)CSC12)c1csc(N)n1` (centres unmarked) [LB3, Cefetamet pivoxil hydrochloride], for which, for the setting “TDP1 IC50, 40 pM recombinant TDP1, 1 nM N14Y DNA substrate, 15 min, room temperature”, the IC50 is above 1000 µM.

As for `C=CC1=C(C(=O)O)N2C(=O)[C@@H](NC(=O)/C(=N\O)c3csc(N)n3)[C@H]2SC1` [LB10, Cefdinir], under setting [1], the IC50 was above 1000 µM.

Turning to `O=C(O)C1=C(CSc2nnnn2CS(=O)(=O)O)CS[C@@H]2[C@H](NC(=O)[C@H](O)c3ccccc3)C(=O)N12` [LF9, Cefonicid sodium], the concentration for half-maximal inhibition (IC50) under setting [1] is above 1000 µM.

In the case of `CO/N=C(\C(=O)N[C@@H]1C(=O)N2C(C(=O)O)=C(CSc3nnnn3C)CS[C@H]12)c1csc(N)n1` [LG4, Cefmenoxime hydrochloride], the IC50 under setting [1] is above 1000 µM.

Consider `CCN1CCN(C(=O)N[C@@H](C(=O)N[C@@H]2C(=O)N3C(C(=O)O)=C(CSc4nnnn4C)CS[C@H]23)c2ccc(O)cc2)C(=O)C1=O` [LB8, Cefoperazone], for which the IC50 under setting [1] was above 1000 µM.

As for `CO[C@@]1(NC(=O)C(C(=O)O)c2ccc(O)cc2)C(=O)N2C(C(=O)O)=C(CSc3nnnn3C)CO[C@@H]21` (some centres unmarked) [LC4, Latamoxef sodium], under setting [1], the IC50 was 179 µM and 180 µM.

For `CC1=C(C(=O)O)N2C(=O)[C@@H](NC(=O)[C@H](N)c3ccccc3)[C@H]2SC1` [LH11, Cephalexin], the IC50 under setting [1] is above 1000 µM.

With `CC1(C)S[C@@H]2[C@H](NC(=O)C(c3ccccc3)S(=O)(=O)O)C(=O)N2[C@H]1C(=O)O` (some centres unmarked) [LA6, Sulbenicillin Sodium], the IC50 under setting [1] is above 1000 µM.

In the case of `CO/N=C(\C(=O)N[C@@H]1C(=O)N2C(C(=O)O)=C(CSc3nc(C)c(CC(=O)O)s3)CS[C@H]12)c1csc(N)n1` [LA5, Cefodizime Sodium], the IC50 under setting [1] was above 1000 µM.

As for `CC(=O)OCC1=C(C(=O)O)N2C(=O)[C@@H](NC(=O)CSC(=NC(C)C)NC(C)C)[C@H]2SC1` [LA4, Cefathiamidine], the IC50 under setting [1] was above 1000 µM.

Take Cefotiam Hexetil Hydrochloride [LC9]: under setting [1], the IC50 is above 1000 µM.

For `CC1=C(C(=O)O)N2C(=O)C(N)C2SC1` (centres unmarked) [LB12, Cefalexine EP IMpurity B], the IC50 under setting [1] is above 1000 µM.

Regarding `CC1(C)S[C@@H]2[C@H](NC(=O)[C@H](C(=O)O)c3ccsc3)C(=O)N2[C@H]1C(=O)O` [LB5, Ticarcillin sodium], the IC50 under setting [1] was above 1000 µM.

On to `CO/N=C(\C(=O)N[C@@H]1C(=O)N2C(C(=O)O)=C(COC(N)=O)CS[C@H]12)c1ccco1` [LF11, Cefuroxime sodium], for which the IC50 under setting [1] amounted to 111 µM.

Turning to `NC(=O)c1cc[n+](CC2=C(C(=O)O)N3C(=O)[C@@H](NC(=O)[C@@H](c4ccccc4)S(=O)(=O)[O-])[C@H]3SC2)cc1` [LC1, Cefsulodine sodium], the IC50 under setting [1] is above 1000 µM.

For the compound `Cc1onc(-c2ccccc2Cl)c1C(=O)N[C@@H]1C(=O)N2[C@@H]1SC(C)(C)[C@@H]2C(=O)O` [LH2, Cloxacillin sodium monohydrate], the IC50 under setting [1] was above 1000 µM.

On to `N[C@@H](C(=O)N[C@@H]1C(=O)N2C(C(=O)O)=C(Cl)CS[C@H]12)c1ccccc1` [LE11, Cefaclor monohydrate], for which, under setting [1], the IC50 was above 1000 µM.

On to `CC1(C)S[C@@H]2[C@H](NC(=O)C(C(=O)O)c3ccccc3)C(=O)N2[C@H]1C(=O)O` (some centres unmarked) [LG5, Carbenicillin disodium], for which the IC50 under setting [1] was above 1000 µM.

Regarding `CC1(C)S[C@@H]2[C@H](NC(=O)Cc3ccccc3)C(=O)N2[C@H]1C(=O)O` [LH9, Penicillin G sodium salt], the IC50 under setting [1] was above 1000 µM.

`CO/N=C(\C(=O)N[C@@H]1C(=O)N2C(C(=O)OC(C)OC(C)=O)=C(COC(N)=O)CS[C@H]12)c1ccco1` (some centres unmarked) [LF10, Cepazine]: the half-inhibitory concentration (IC50) under setting [1] is above 1000 µM.

On to `CO/N=C(\C(=O)N[C@@H]1C(=O)N2C(C(=O)O)=C(Cn3ccc(=N)n3CCO)CS[C@H]12)c1csc(N)n1` [LB7, Cefoselis Sulfate], for which the IC50 under setting [1] was above 1000 µM.

Take `CC1(C)[C@H](C(=O)O)N2C(=O)C[C@H]2S1(=O)=O` [LE7, Sulbactam]: the IC50 (read-out: TDP1 IC50) was found to be 595 µM.

Take `CO[C@@]1(NC(=O)CSC[C@@H](N)C(=O)O)C(=O)N2C(C(=O)O)=C(CSc3nnnn3C)CS[C@@H]21` [LE3, Cefminox Sodium]: where the note is “read-out: TDP1 IC50”, the IC50 was above 1000 µM.

On to `Nc1nc2c(c(=O)[nH]1)N=C(CNc1ccc(C(=O)N[C@@H](CCC(=O)O)C(=O)O)cc1)CN2` [compound 10, dihydrofolic acid dihydrate], for which, under setting [1], the concentration for half-maximal inhibition (IC50) is 60.1 µM and 60 µM.

As for `C[n+]1ccn(C[C@@]2(C)[C@H](C(=O)[O-])N3C(=O)C[C@H]3S2(=O)=O)n1` [LF2, AAI101], the IC50 under setting [1] is above 1000 µM.

Take `C/C=C/C1=C(C(=O)O)N2C(=O)[C@@H](NC(=O)[C@H](N)c3ccc(O)cc3)[C@H]2SC1` [LG8, Cefprozil hydrate]: the IC50 under setting [1] was above 1000 µM.

With `CN(C)CCn1nnnc1SCC1=C(C(=O)O)N2C(=O)[C@@H](NC(=O)Cc3csc(N)n3)[C@H]2SC1` [LE8, Cefotiam hydrochloride], the IC50 under setting [1] was above 1000 µM.

For the compound `Nc1nc(/C(=C/CC(=O)O)C(=O)N[C@@H]2C(=O)N3C(C(=O)O)=CCS[C@H]23)cs1` [LD10, Ceftibuten dihydrate], the IC50 under setting [1] is above 1000 µM.

Consider `CO[C@@]1(NC(=O)C2SC(=C(C(N)=O)C(=O)O)S2)C(=O)N2C(C(=O)O)=C(CSc3nnnn3C)CS[C@@H]21` (some centres unmarked) [LB4, Cefotetan], for which, under setting [1], the IC50 is 379 µM.

`CO/N=C(\C(=O)N[C@@H]1C(=O)N2C(C(=O)O)=C(C[N+]3(C)CCCC3)CS[C@H]12)c1csc(N)n1` [LB1, Cefepime Dihydrochloride Monohydrate]: under setting [1], the IC50 is above 1000 µM.

For `NCc1ccccc1CC(=O)N[C@@H]1C(=O)N2C(C(=O)O)=C(CSc3nnnn3CC(=O)O)CS[C@H]12` [LC10, Ceforanide], under setting [1], the IC50 amounted to 378 µM.

In the case of `Cc1cc(O)c(C(=O)N[C@@H](C(=O)N[C@@H]2C(=O)N3C(C(=O)O)=C(CSc4nnnn4C)CS[C@H]23)c2ccc(O)cc2)cn1` [LH1, Cefpiramide acid], the IC50 under setting [1] was above 1000 µM.

`Cc1onc(-c2ccccc2)c1C(=O)NC1C(=O)N2[C@@H]1SC(C)(C)[C@@H]2C(=O)O` (some centres unmarked) [LH8, Oxacillin sodium]: under setting [1], the IC50 is above 1000 µM.
